Legend:
J774 A.1 cells [1] = test: FACS competition assay: FITC-rBAG3 binding to J774 A.1 cells with BAG3 peptides or F(ab′)2 fragments; assay type: cell-based, murine; details: 14 nM FITC-BAG3, 625 nM of BAG3 peptides
Description: (§1) We addressed the functional significance of BAG3 release by cardiomyocytes. […] Therefore we investigated whether BAG3 could interact with blood cells. […] BAG3 binding to macrophages was specifically impaired by competing BAG3 peptides or by BAG3-sequestering F(ab′)2 fragments from anti-BAG3 monoclonal antibodies (Table I). In particular J774 cells were incubated with 14 nM FITC-BAG3 protein and with 625 nM of BAG3 peptides (peptide 1, peptide 2, peptide 3, peptide 4 or scrambled peptide) or with 420 nM of F(ab′)2 fragments from anti-BAG3 monoclonal and polyclonal antibodies (mouse monoclonal AC1, AC2 and rabbit polyclonal TOS2). F(ab′)2 fragments from mouse IgG or F(ab′)2 fragments from rabbit IgG were used as a negative control.
Competition—J774 A.1 cells (2.5×105/100 μl) were incubated with 625 nM of BAG3 peptides (peptide 1, peptide 2, peptide 3, peptide 4 or scrambled peptide) or with 420 nM of F(ab′)2 fragments from anti-BAG3 monoclonal and polyclonal antibodies (mouse monoclonal AC1, AC2 and rabbit polyclonal TOS2) or F(ab′)2 fragments from mouse IgG or F(ab′)2 fragments from rabbit IgG in PBS containing 2% FBS+0.1% NaN3 for 30 min on ice. After incubation the cells were washing with PBS and then were incubated with of FITC-rBAG3 protein (14 nM), in PBS containing 2% FBS+0.1% NaN3 for 30 min at 4° C. in the dark. After washing with PBS, the cells were resuspended in PBS+2% FBS+0.1% NaN3 and analyzed by flow cytometer (BD Biosciences).

J774 A1 macrophages [2] = test: IL-6 release from J774 A1 macrophages (ELISA); assay type: cell-based, murine; details: J774 A1, FIG. 3C panel c
Description: FIG. 3C panel c—Analysis of IL-6 release from J774 A1 macrophages incubated with BAG3. J774 A1 cells at 80% confluency macrophages were incubated with control medium, BSA, LPS or recombinant BAG3 for 5 hours. BAG3 peptides (peptide 1, peptide 2, peptide 3, peptide 4 or scrambled peptide) 625 nM were added where indicated to verify their ability to block BAG3 activity. IL-6 production was measured in cell culture medium using an ELISA test. IL-6 concentration was evaluated by comparing the OD of the sample with that of a standard curve of recombinant IL-6. IL6 was measured in supernatant of J774 A.1 cells (5×10^4/in 96-well microplates) treated with LPS (10 ng/ml) or with rBAG3 (14 nM) or BSA (14 nM) for 10 or 20 hours in absence or presence of polymyxin B sulfate (5 μg/ml). After treatment 50 μL of cell culture medium were collected and analyzed in triplicate with a mouse IL6 Kit (eBioscience).

J774 A1 macrophages [3] = test: Cox-2 and iNOS levels in J774 A1 macrophages incubated with BAG3 (western blot); assay type: cell-based, murine; details: BAG3-treated macrophages, 20 hours, FIG. 3C panel a
Description: FIG. 3C panel a—Analysis of Cox-2 and iNOS levels in J774 A1 macrophages incubated with BAG3. J774 A1 cells at 80% confluency were incubated with control medium, BSA, LPS or rBAG3, for 20 hours. Polymixin was added where indicated to verify that the effects of E. coli-derived rBAG3 were independent from the presence of contaminating endotoxin. Cox-2 and iNOS expression were analyzed in cell lysates by Western blotting. To explore functional consequences of BAG3 binding to macrophages, we tested the effect of recombinant BAG3 on the expression of inducible nitric oxide synthase (iNOS) and cyclooxygenase (Cox)-2 in the cells. As shown in FIG. 3C panel a the levels of those enzymes were enhanced in BAG3-treated macrophages. […] Soluble proteins were collected after a centrifugation at 10,000 g for 15 min and their amount was determined by Bradford assay (Bio-Rad, Hercules, Calif.). […] Immunoreactivity was detected by sequential incubation with horseradish peroxidase-conjugated secondary antibodies purchased from Pierce (Rockford, Ill.) and ECL detection reagents purchased from Amersham Life Sciences Inc. (Arlington Heights, Ill., USA).

J774 A1 macrophages [4] = test: Nitrite release from J774 A1 macrophages (Griess reaction); assay type: cell-based, murine; details: J774 A1, 24 hours, FIG. 3C panel b
Description: FIG. 3C panel b—Analysis of nitrite release from J774 A1 macrophages incubated with BAG3. J774 A1 cells at 80% confluency were incubated with control medium, BSA, LPS or rBAG3 for 24 hours. 100 μl of supernatants from each sample were incubated with 100 μl of Griess reagent; the optical density at 550 nm (OD550) was measured with a Beckman DU62 spectrophotometer. Nitrite concentration was evaluated by comparing the OD550 of the sample with that of a standard curve of sodium nitrite. Nitrite content (NO2^−), a stable metabolite of NO released by cells in the culture supernatant, was measured in J774 A.1 cells (5×104/in 96-well microplates) treated with LPS (10 ng/ml) or with rBAG3 (7, 14 and 28 nM) or BSA (28 nM) for 24 hours in absence or presence of polymyxin B sulfate (Sigma-Aldrich, St. Louis, Mo., USA) 5 μg/ml. NO2^− amounts were measured by Griess reaction. Briefly, 100 μL of cell culture medium were mixed with 100 μL of Griess reagent—equal volumes of 1% (w:v) sulphanilamide in 5% (v:v) phosphoric acid and 0.1% (w:v) naphtylethylenediamine-HCl—and incubated at room temperature for 10 min, and then the absorbance was measured at 550 nm in a microplate reader Titertek (Dasit, Cornaredo, Milan, Italy). The amount of NO2- (as μM) in the samples was calculated from a sodium nitrite standard curve.

HCMa cells = test: Confocal direct fluorescence, rBAG3-FITC binding to cardiomyocytes; assay type: cell-based, human; details: FIG. 3A, result in words
Text: FIG. 3A: Confocal microscopy analysis of direct fluorescence performed for detection of rBAG3-FITC binding to HCMa cells (a, b, c) and J774 A1 cells (d, e, f, g, h, i). BAG3 recombinant protein and purified BSA (albumin from bovine serum purchased from SIGMA) were conjugated to FITC using the FluoroTag FITC Conjugation Kit purchased from SIGMA following the manufacturer instructions. Equal amount of rBAG3-FITC (b, e) and BSA-FITC (h) proteins, calculated following the manufacturer instructions, were added in HCM and J774 A1 culture media with 0.1% NaN3 […] (a, d, g). Cells were analyzed by a Zeiss LSM confocal microscope. Merged images are shown in c, f and i.
We addressed the functional significance of BAG3 release by cardiomyocytes. […]
Cells were cultured on coverslips in six-well plates to 60-70% confluence and equal amount of rBAG3-FITC and BSA-FITC proteins were added in HCMa and J774 A1 culture media with 0.1% NaN3 for 1 h. […] Samples were analyzed using a confocal laser scanning microscope (Zeiss LSM confocal microscope, Germany). […] For production of figures, brightness and contrast of images were adjusted by taking care to leave a light cellular fluorescence background for visual appreciation of the lowest fluorescence intensity features and to help comparison among the different experimental groups. […]

J774 A.1 cells [5] = test: FACS analysis of FITC-rBAG3 binding to J774 A.1 macrophages; assay type: cell-based, murine
Description: FIG. 3B: BAG3 binds macrophages. J774 A1 macrophages (1×10^6 cells/ml) were incubated with different concentration of Fitc-BAG3 protein (7, 14 and 70 nm). FITC-BSA (70 nM) was used as a negative control (grey). Cells fluorescence was analyzed by flow cytometry.
as §1
rBAG3 binding—J774 A.1 cells were blocked with 2% FBS+0.1% NaN3 in PBS for 15 min on ice and incubated (2.5×105/100 μl) with different concentration of FITC-rBAG3 protein (7, 14 and 70 nm) or FITC-BSA (70 nM) in PBS containing 2% FBS+0.1% NaN3 for 30 min at 4° C. in the dark. After washing with PBS, the cells were resuspended in PBS+2% FBS+0.1% NaN3 and analyzed with a FACScan (BD Biosciences) flow cytometer.

SSPKSVATEERAAPS (listed as Homo sapiens) [Pep2, 12]
Competiton assays % inhibition (J774 A.1 cells [1]): 89.1% | Competiton assays % of positive cells (±S.D.) (J774 A.1 cells [1]): 1.21 (±0.63) %

recombinant BAG3: E. coli-derived recombinant BAG3 protein; human BAG3 is SEQ ID NO:15
release of interleukin (IL)-6 (J774 A1 macrophages [2]): induced the release | expression of inducible nitric oxide synthase (iNOS) and cyclooxygenase (Cox)-2 (J774 A1 macrophages [3]): enhanced | release of nitrite (J774 A1 macrophages [4]): induced the release

DKGKKNAGNAEDPHT (listed as Homo sapiens) [Pep3, 13]
Competiton assays % inhibition (J774 A.1 cells [1]): 47.2% | Competiton assays % of positive cells (±S.D.) (J774 A.1 cells [1]): 5.86 (±0.43) %

FITC-rBAG3: BAG3 recombinant protein conjugated to FITC
binding to the cardiomyocyte surface (HCMa cells): did not apparently bind | binding to macrophages of the cell line J774 (J774 A.1 cells [5]; FIG. 3B, result in words): bound | FITC-rBAG3 % of positive cells (±S.D.) (J774 A.1 cells [5]; J774 cells, flow cytometry): 15.7 (±0.45) %

NPSSMTDTPGNPAAP (listed as Homo sapiens) [Pep4, 14]
Competiton assays % inhibition (J774 A.1 cells [1]): 93.8% | Competiton assays % of positive cells (±S.D.) (J774 A.1 cells [1]): 0.68 (±0.20) %

FITC-BSA: purified albumin from bovine serum conjugated to FITC, negative control
FITC-BSA % of positive cells (±S.D.) (J774 A.1 cells [5]; J774 cells, flow cytometry, negative control): 4.04 (±0.06) %

DRDPLPPGWEIKIDPQ (listed as Homo sapiens) [Pep1, 11]
Competiton assays % inhibition (J774 A.1 cells [1]): 98.4% | Competiton assays % of positive cells (±S.D.) (J774 A.1 cells [1]): 0.18 (±0.05) %

Source: patent US10359433B2, “BAG3 as biochemical serum and tissue marker” (BIOUNIVERSA S.R.L., priority 2012, dated 2019)
